Test results from ChEMBL document CHEMBL4130462, “Natural isoflavone biochanin A as a template for the design of new and potent 3-phenylquinolone efflux inhibitors against Mycobacterium avium” (Eur J Med Chem, 2017).
Converted amounts (≈) assume the structure as drawn.

Assays:
[1] = test system: Mycolicibacterium smegmatis; assay: Antimycobacterial activity against Mycobacterium smegmatis str. MC2 155 assessed as reduction in bacterial viability incubated for 3 days by MTT assay; format: organism-based; conditions: 72 h
[2] = test system: Mycobacterium avium; assay: Antimycobacterial activity against Mycobacterium avium ATCC 25291 assessed as reduction in bacterial viability incubated for 3 days by MTT assay; format: organism-based; conditions: mycobacterium avium subsp. avium atcc 25291, 72 h
[3] = test system: Mycobacterium avium; assay: Antimycobacterial activity against Mycobacterium avium isolate MAV1 assessed as reduction in bacterial viability incubated for 3 days by MTT assay; format: organism-based; conditions: in vitro, 72 h
[4] = test system: Mycobacterium avium; assay: Antimycobacterial activity against Mycobacterium avium isolate MAV4 assessed as reduction in bacterial viability incubated for 3 days by MTT assay; format: organism-based; conditions: 72 h
[5] = Safety index, ratio of CC50 for test compound to CC50 for thioridazine for cytotoxicity in human monocyte-derived macrophages; format: cell-based, Macrophage cell line
[6] = Safety index, ratio of MTC for test compound to MTC for thioridazine for cytotoxicity in human monocyte-derived macrophages; format: cell-based, Macrophage cell line
[7] = Safety index, ratio of MTC for test compound to MTC for chlorpromazine for cytotoxicity in human monocyte-derived macrophages; format: cell-based, Macrophage cell line
[8] = test system: Mycobacterium avium; conditions: 72 h
Description: Antimycobacterial activity against Mycobacterium avium 104 assessed as reduction in bacterial viability incubated for 3 days by MTT assay

[9] = test system: Mycobacterium avium; conditions: in vivo, 72 h
Description: Antimycobacterial activity against Mycobacterium avium 104 mc'2 3 assessed as reduction in bacterial viability incubated for 3 days by MTT assay

[10] = test system: Mycobacterium avium; conditions: in vivo, 72 h; remark: listed apart in the source
Description: Antimycobacterial activity against Mycobacterium avium 104 mc'2 4 assessed as reduction in bacterial viability incubated for 3 days by MTT assay

[11] = test system: Mycobacterium avium; conditions: 104 mc'2 3
[12] = test system: Mycobacterium avium; conditions: 104 mc'2 3; remark: listed apart in the source
[13] = test system: Mycobacterium avium; conditions: isolate MAV2
Description: Inhibition of multidrug resistance efflux pump in Mycobacterium avium isolate MAV2 assessed as potentiation of clarithromycin -induced antibacterial activity by measuring clarithromycin MIC at 1/2 MIC incubated for 3 days by MTT assay (Rvb = >1024 ug/ml)

[14] = test system: Mycobacterium avium; conditions: isolate MAV4
Description: Inhibition of multidrug resistance efflux pump in Mycobacterium avium isolate MAV4 assessed as potentiation of clarithromycin -induced antibacterial activity by measuring clarithromycin MIC at 1/2 MIC incubated for 3 days by MTT assay

[15] = test system: Mycobacterium avium; conditions: 104
[16] = test system: Mycobacterium avium; conditions: 104 mc'2 3; remark: listed apart in the source
[17] = test system: Mycobacterium avium; conditions: isolate MAV1
[18] = test system: Mycobacterium avium; conditions: isolate MAV3
[19] = test system: Mycobacterium avium; conditions: 104 mc'2 3; remark: listed apart in the source
[20] = test system: Mycobacterium avium; conditions: 104 mc'2 3; remark: listed apart in the source
[21] = test system: Mycobacterium avium; conditions: isolate MAV1; remark: listed apart in the source
[22] = test system: Mycobacterium avium; conditions: isolate MAV2; remark: listed apart in the source
[23] = test system: Mycobacterium avium; conditions: isolate MAV2; remark: listed apart in the source
[24] = test system: Mycobacterium avium; conditions: isolate MAV4; remark: listed apart in the source
[25] = test system: Mycobacterium avium subsp. avium ATCC 25291
[26] = test system: Mycobacterium avium; conditions: 104 mc'2 3; remark: listed apart in the source
[27] = test system: Mycobacterium avium; conditions: isolate MAV1; remark: listed apart in the source
Description: Inhibition of multidrug resistance efflux pump in Mycobacterium avium isolate MAV1 assessed as potentiation of ciprofloxacin-induced antibacterial activity by measuring ciprofloxacin MIC at 1/4 MIC incubated for 3 days by MTT assay

[28] = test system: Mycobacterium avium; conditions: isolate MAV2; remark: listed apart in the source
[29] = test system: Mycobacterium avium; conditions: isolate MAV3; remark: listed apart in the source
[30] = test system: Mycobacterium avium; conditions: 104; remark: listed apart in the source
[31] = test system: Mycobacterium avium; conditions: 104 mc'2 4
[32] = test system: Mycobacterium avium; conditions: isolate MAV1; remark: listed apart in the source
Description: Inhibition of multidrug resistance efflux pump in Mycobacterium avium isolate MAV1 assessed as potentiation of ofloxacin-induced antibacterial activity by measuring ofloxacin MIC at 1/4 MIC incubated for 3 days by MTT assay (Rvb = 4 ug/ml)

[33] = test system: Mycobacterium avium; conditions: isolate MAV2; remark: listed apart in the source
Description: Inhibition of multidrug resistance efflux pump in Mycobacterium avium isolate MAV2 assessed as potentiation of ofloxacin-induced antibacterial activity by measuring ofloxacin MIC at 1/4 MIC incubated for 3 days by MTT assay

[34] = test system: Mycobacterium avium; conditions: isolate MAV4; remark: listed apart in the source
[35] = test system: Mycobacterium avium subsp. avium ATCC 25291; remark: listed apart in the source
[36] = test system: Mycobacterium avium subsp. avium ATCC 25291; remark: listed apart in the source
[37] = test system: Mycobacterium avium; conditions: 104 mc'2 3; remark: listed apart in the source
[38] = test system: Mycobacterium avium; conditions: 104 mc'2 4; remark: listed apart in the source
[39] = test system: Mycobacterium avium; conditions: 104 mc'2 4; remark: listed apart in the source
[40] = test system: Mycobacterium avium; conditions: isolate MAV3; remark: listed apart in the source
[41] = test system: Mycobacterium avium; conditions: isolate MAV4; remark: listed apart in the source
[42] = test system: Mycobacterium avium subsp. avium ATCC 25291; remark: listed apart in the source
Description: Inhibition of multidrug resistance efflux pump in Mycobacterium avium ATCC 25291 assessed as potentiation of ethidium bromide-induced antibacterial activity by measuring ethidium bromide MIC at 1/4 MIC incubated for 3 days by MTT assay

CCCOc1ccc(-c2cn(CCN(CC)CC)c3ccccc3c2=O)cc1
MIC [1]: 256 µg/mL (≈ 676 µM)
MIC [2]: 256 µg/mL (≈ 676 µM)
MIC [3]: 128 µg/mL (≈ 338 µM)
MIC [4]: 256 µg/mL (≈ 676 µM)
selectivity ratio [5]: 4 to 6
selectivity ratio [6]: 4 to 6
selectivity ratio [7]: 2 to 4
MIC [8]: 256 µg/mL (≈ 676 µM)
MIC [9]: 256 µg/mL (≈ 676 µM)
MIC [10]: 256 µg/mL (≈ 676 µM)
MIC [11]: 256 µg/mL (≈ 676 µM)
MIC [12]: 512 µg/mL (≈ 1350 µM)
MIC [13]: 64 µg/mL (≈ 169 µM)
MIC [14]: 1 µg/mL (≈ 2.64 µM)
MIC [15]: < 2 µg/mL
MIC [16]: 512 µg/mL (≈ 1350 µM)
MIC [17]: 16 µg/mL (≈ 42.3 µM)
MIC [18]: 256 µg/mL (≈ 676 µM)
MIC [19]: 512 µg/mL (≈ 1350 µM)
MIC [20]: 512 µg/mL (≈ 1350 µM)
MIC [21]: 32 µg/mL (≈ 84.5 µM)
MIC [22]: 16 µg/mL (≈ 42.3 µM)
MIC [23]: 512 µg/mL (≈ 1350 µM)
MIC [24]: 16 µg/mL (≈ 42.3 µM)
MIC [25]: 64 µg/mL (≈ 169 µM)
MIC [26]: 2 µg/mL (≈ 5.28 µM)
MIC [27]: 2 µg/mL (≈ 5.28 µM)
MIC [28]: 0.5 µg/mL (≈ 1.32 µM)
MIC [29]: 8 µg/mL (≈ 21.1 µM)
MIC [30]: 4 µg/mL (≈ 10.6 µM)
MIC [31]: 8 µg/mL (≈ 21.1 µM)
MIC [32]: 4 µg/mL (≈ 10.6 µM)
MIC [33]: 2 µg/mL (≈ 5.28 µM)
MIC [34]: 4 µg/mL (≈ 10.6 µM)
MIC [35]: 8 µg/mL (≈ 21.1 µM)
MIC [36]: 16 µg/mL (≈ 42.3 µM)
MIC [37]: 3.12 µg/mL (≈ 8.26 µM)
MIC [38]: 3.12 µg/mL (≈ 8.26 µM)
MIC [39]: 6.25 µg/mL (≈ 16.5 µM)
MIC [40]: 12.5 µg/mL (≈ 33 µM)
MIC [41]: 6.25 µg/mL (≈ 16.5 µM)
MIC [42]: 25 µg/mL (≈ 66 µM)

CN(C)CCCN1c2ccccc2Sc2ccc(Cl)cc21 [CHLORPROMAZINE]
MIC [1]: 60 µg/mL (≈ 188 µM)
MIC [2]: 30 µg/mL (≈ 94.1 µM)
MIC [3]: 30 µg/mL (≈ 94.1 µM)
MIC [4]: 30 µg/mL (≈ 94.1 µM)
MIC [8]: 30 µg/mL (≈ 94.1 µM)
MIC [9]: 30 µg/mL (≈ 94.1 µM)
MIC [10]: 30 µg/mL (≈ 94.1 µM)
MIC [11]: < 4 µg/mL
MIC [12]: > 512 µg/mL
MIC [13]: > 512 µg/mL
MIC [14]: 0.5 µg/mL (≈ 1.57 µM)
MIC [15]: < 4 µg/mL
MIC [16]: > 512 µg/mL
MIC [17]: < 4 µg/mL
MIC [18]: 128 µg/mL (≈ 401 µM)
MIC [19]: < 4 µg/mL
MIC [20]: > 512 µg/mL
MIC [21]: 32 µg/mL (≈ 100 µM)
MIC [22]: > 512 µg/mL
MIC [23]: > 512 µg/mL
MIC [24]: 16 µg/mL (≈ 50.2 µM)
MIC [25]: 16 µg/mL (≈ 50.2 µM)
MIC [26]: 1 µg/mL (≈ 3.14 µM)
MIC [27]: 1 µg/mL (≈ 3.14 µM)
MIC [28]: 2 µg/mL (≈ 6.27 µM)
MIC [29]: 1 µg/mL (≈ 3.14 µM)
MIC [30]: 2 µg/mL (≈ 6.27 µM)
MIC [31]: 8 µg/mL (≈ 25.1 µM)
MIC [32]: 1 µg/mL (≈ 3.14 µM)
MIC [33]: 2 µg/mL (≈ 6.27 µM)
MIC [34]: 2 µg/mL (≈ 6.27 µM)
MIC [35]: < 0.5 µg/mL
MIC [36]: 8 µg/mL (≈ 25.1 µM)
MIC [37]: 0.78 µg/mL (≈ 2.45 µM)
MIC [38]: 0.39 µg/mL (≈ 1.22 µM)
MIC [39]: 6.25 µg/mL (≈ 19.6 µM)
MIC [40]: 12.5 µg/mL (≈ 39.2 µM)
MIC [41]: 3.12 µg/mL (≈ 9.8 µM)
MIC [42]: 12.5 µg/mL (≈ 39.2 µM)
